Experimental findings from US20240226018A1, “METHOD FOR COATING PHARMACEUTICAL SUBSTRATES” (Applied Materials, Inc., priority 2012, published 2024) are described below.

The nature of the data set: Tableting study: compression forces and crushing strength of tablets (eccentric tableting machine, Scleuninger-E apparatus). The class given is physicochemical. The conditions noted are these: tablets of target weight 300 mg, flat-faced 9 mm punches, die wall lubricated with 5% (w/V) magnesium stearate in acetone; upper punch force differs per material (Table 1). The method, then: The material obtained from Example 1 was tableted using an instrumented eccentric tableting machine (Korsch EK-0, Erweka Apparatebau, Heusenstamm, Germany) Flat-faced 9 mm punches were used and the die wall was lubricated using 5% (w/V) magnesium stearate in acetone before each compression. The target weights of tablets were 300 mg. Compression forces during the compression process were measured and the crushing strength of each tablet was measured using Scleuninger-E apparatus (Switzerland) (Table 1).

In the case of `CC(=O)Nc1ccc(O)cc1` [Neat paracetamol, paracetamol], the Crushing strength result was “No tablet, no measurable”.
